The test system of data set [1] is CSMA strain housefly (Musca domestica). The data set is described as follows: Topical application to housefly adults, Test example 8. Particulars: topical to ventral thorax, 0.5 μl/adult, female adults, 24 hours. In kind it is in vivo. As to the method:
The present compounds as below and reference compounds were each diluted with acetone into test solutions having four different concentrations of active ingredient. Each test solution was topically applied to the ventral throrax of CSMA strain housefly female adults (Musca domestica), at a rate of 0.5 μl/adult by means of a microapplicator.
The adults were then liberated in a polyethylene cup and fed with milk, sugar and water. After 24 hours, the dead and alive were observed. The median lethal dosage (LD50 μg/adult) was obtained from the morality (3 replications).

Data set [2] can be described thus: Toxicity to killifish (TLm48), Test example 1. In kind it is in vivo, Oryzias latipes. Particulars: for selectivity ratio: in vivo, TLm48 divided by concentration in water at green rice leafhopper LC50, read-out: Safety coefficient to fishes (a)/(b); for LC50 at 48 h: water, killifish, medium tolerance limit, read-out: Toxicity to fishes TLm48 (a). On the procedure: Toxicity to killifish (Oryzias latipes) was tested accordig to the test method for toxicity to fishes described in Notification B No. 2735 of the Ministry of Agriculture and Forestry (Nov. 25, 1965). Namely, each of the present compounds (1), (2), (4), (5), (6), (8), (9), (11) and reference compounds was dissolved or suspended in "Tween 80" and diluted successively with dechlorinated tap water. Ten killifish (0.2-0.3 g per fish) were released in a 10-liter glass vessel containing 5 liters of each preparation.
In order to make it clearer that the present compounds have a low toxicity to fishes as well as a high insecticidal activity, a safety coefficient to fishes was calculated from the test results of toxicity to fishes and insecticidal activity. [formula]
A detailed explanation will be given to a method of how to calculate the safety coefficient. In the case of green rice leafhoppers, calculation was based on the concentration of active ingredient in water obtained by applying a test solution containing the active ingredient in an amount corresponding to LC50 (ppm) to a flooded paddy field 5 cm deep at a rate of 100 liter/10 are, provided that all the active ingredient applied entered the water.
For example, the safety coefficient to fishes of the present compound (1) is calculated as follows: The quantity of water in a flooded paddy field 5 cm deep and 10 are in area is 50 tons; when a test solution containing the active ingredient in an amount corresponding to LC50 (ppm) is added to the paddy field at a rate of 100 liter/10 are the concentration of the active ingredient in water (hereinafter referred to as (b)) is 0.008 pp; as the toxicity to fishes [TLm48 (ppm)] (hereinafter referred to as (a)) is >2.0 ppm, said coefficient can be calculated by dividing (a) by (b). In this case, the coefficient is >250, which means that the present compound (1) has a safety higher than 250-fold.

For data set [3], the system named is green rice leafhopper (Nephotettix cincticeps), R-strain. The data set is described as follows: Insecticidal activity against green rice leafhopper, sprayed rice plants, Test example 1. It is filed as in vivo. Particulars: green rice leafhopper female adults, spray on rice plant, 26° C., 24 hours. As to the method:
The emulsifiable concentrates of the present compounds and reference compounds prepared in Preparation example 1 were each formulated into test solutions having four different concentrations of active ingredient between 500 ppm and 0.5 ppm. Each test solution was sprayed on a rice plant in a 180-ml plastic cup which had elapsed one month after sowing, at a rate of 15 ml/2 cups by means of a turn table. After air-drying, the rice plate was covered with a wire-screen cage, and 15 female adults of green rice leafhopper (Nephotettix cincticeps) (a strain resistant to carbamates and organo-phosphates, hereinafter referred to as R-strain) were liberated therein. The plant was placed in an artificial climate chamber kept at 26° C. After 24 hours, the dead and alive were examined. The median lethal concentratin [LC50 (ppm)] was calculated from the mortality determined by 3 replications. […]

The test system of data set [4] is green rice leafhopper (Nephotettix cincticeps). Briefly: Simulated paddy field box test, green rice leafhopper, Test example 6. In kind it is in vivo. Particulars: wettable powder, 100 ppm, 100 liter/10 are, after 48 hours. As to the method:
(§1) The wettable powder of each of the present compounds (1), (3), (5), (6) and (11) prepared in Preparation example 4 was diluted with water so that the concentration of active ingredient was 100 ppm. Soil was placed in a plastic box [5 m×5 m×2 m (deep)] to a level of 50 cm from the bottom, and rice plants about 50 cm high were transplanted at invervals of 50 cm. Water was then placed in the box so that water depth was 5 cm, and 20 killifishes (Oryzias latipes) were liberated therein. Thereafter, the above dilute solution was sprayed on the box at a rate of 100 liter/10 are. The solution fell on the rice plants as well as on the water surface.
(§2) One hour after treatment, 100 female adults of green rice leafhopper (Nephotettix cincticeps) were liberated in the box which was immediately covered with a net.

The subject of data set [5] is killifishes (Oryzias latipes). The data set is described as follows: Simulated paddy field box test, killifish survival, Test example 6. It is filed as in vivo. Particulars: wettable powder, 100 ppm, 100 liter/10 are, water depth 5 cm, after 48 hours. On the procedure: as §1, §2
Data set [6] concerns housefly (Musca domestica). Briefly: Housefly mortality, treated filter paper with bait, Test example 7. Particulars: 0.7 ml on filter paper, housefly female adults, 48 hours. It is filed as in vivo. On the procedure: The emulsifiable concentrate obtained in preparation Example 1 was diluted 200 times with water (corresponding to 500 ppm of the active ingredient). On the bottom a polyethylene cup of 5.5 cm in diameter was placed a piece of filter paper of the same size, and 0.7 ml of the above dilute liquor was dropped on the filter paper. Sucrose (30 mg) was placed on the paper as bait. Thereafter, 10 housefly female adults (Musca domestica) were liberated in the cup which was then covered with a lid. After 48 hours, the dead and alive were counted to obtain mortality (4 replications).

The subject of data set [7] is carmine mites (Tetranychus cinnabarinus). Briefly: Damage to rice plants by carmine mites, Test example 4. Particulars: 500 ppm spray, after 10 days. It is filed as in vivo. As to the method: The emulsifiable concentrate of each of the present compounds (3), (5), (9) and (11) prepared in Preparation example 1 was diluted with water so that the concentration of the active ingredient was 500 ppm. The dilute liquor was thoroughly sprayed on rice plants (grown in a 1/10,000 are Waner's pot) on which carmine mites (Tetranychus cinnabarinus) in all stages were made parasitic.

One may read the mortality as the percentage killed. Read a low mortality as a weak lethal effect.

In turn, `CC1(C)C(C(=O)OC(C#N)c2cccc(Oc3ccc(Br)cc3)c2)C1C(Br)C(Cl)(Cl)Br` (stereo not drawn) [(D), reference compound] had an LD50 in data set [1] of 0.063 μg/adult.
Regarding `CC1(C)[C@H](C(=O)OC(C#N)c2ccc(F)c(Oc3ccc(Cl)cc3)c2)[C@H]1C(Br)C(Cl)(Cl)Br` (relative stereo) [compound (6), 3-(4-Chlorophenoxy)-4-fluoro-α-cyanobenzyl dl-trans-2,2-dimethyl-3-(1,2-dibromo-2,2-dichloroethyl)cyclopropanecarboxylate], in data set [2], the selectivity ratio is over 200 and the LC50 at 48 h was over 1 µg/mL. Further, in data set [3], the LC50 worked out at 2.7 ppm. Also, the “green rice leafhoppers alive” value in data set [4] is recorded as “no alive green rice leafhoppers were found”. In addition, the killifishes alive result in data set [5] is given as “all of the killifishes were alive”. Besides, the mortality at 500 ppm in data set [6] stood at 100%. Further, the LD50 in data set [1] is given as 0.031 μg/adult.
Consider `CC1(C)C(C(=O)OC(C#N)c2ccc(F)c(Oc3ccc(Br)cc3)c2)C1C(Br)C(Br)(Br)Br` (stereo not drawn) [compound (3), 3-(4-Bromophenoxy)-4-fluoro-α-cyanobenzyl 2,2-dimethyl-3-(1,2,2,2-tetrabromoethyl)cyclopropanecarboxylate], for which the “damage to rice plants by carmine mites” value in data set [7] is “the spreading of the damage could be prevented”. Moreover, in data set [4], the “green rice leafhoppers alive” value is “no alive green rice leafhoppers were found”. The killifishes alive result in data set [5] is “all of the killifishes were alive”.
On to `CC1(C)[C@H](C(=O)OC(C#N)c2ccc(F)c(Oc3ccc(Cl)cc3)c2)[C@@H]1C(Br)C(Cl)(Cl)Br` (stereo partly drawn) [compound (10), 3-(4-Chlorophenoxy)-4-fluoro-α-cyanobenzyl d-cis-2,2-dimethyl-3-(1,2-dibromo-2,2-dichloroethyl)cyclopropanecarboxylate], for which the mortality at 500 ppm in data set [6] is 100%. In data set [1], this compound showed an LD50 of 0.030 μg/adult.
For `CC1(C)[C@H](C(=O)OC(C#N)c2ccc(F)c(Oc3ccc(Cl)cc3)c2)[C@H]1C(Br)C(Cl)(Cl)Br` (stereo partly drawn) [compound (9), 3-(4-Chlorophenoxy)-4-fluoro-α-cyanobenzyl d-trans-2,2-dimethyl-3-(1,2-dibromo-2,2-dichloroethyl)cyclopropanecarboxylate], in data set [2], the selectivity ratio was over 333 and the LC50 at 48 h is over 1 µg/mL. The LC50 in data set [3] came to 1.5 ppm. The “damage to rice plants by carmine mites” value in data set [7] is given as “the spreading of the damage could be prevented”. In data set [6], this compound had a mortality at 500 ppm of 100%. The LD50 in data set [1] was 0.018 μg/adult.
Regarding `CC1(C)C(C(=O)OC(C#N)c2cccc(Oc3ccccc3)c2)C1C(Br)C(Cl)(Cl)Br` (stereo not drawn) [(A), reference compound], the selectivity ratio in data set [2] turned out to be 50. For the same compound, the LC50 in data set [3] was 5.0 ppm.
As for `CC1(C)[C@H](C(=O)OC(C#N)c2ccc(F)c(Oc3ccc(Br)cc3)c2)[C@@H]1C(Br)C(Br)(Br)Br` (stereo partly drawn) [compound (4), 3-(4-Bromophenoxy)-4-fluoro-α-cyanobenzyl d-cis-2,2-dimethyl-3-(1,2,2,2-tetrabromoethyl)cyclopropanecarboxylate], in data set [2], the selectivity ratio was over 154 and the LC50 at 48 h is over 2 µg/mL. Besides, the LC50 in data set [3] came out at 6.3 ppm.
For the compound `CC1(C)C(C(=O)OC(C#N)c2ccc(F)c(Oc3ccc(Cl)cc3)c2)C1C(Br)C(Br)(Br)Br` (stereo not drawn) [compound (8), 3-(4-Chlorophenoxy)-4-fluoro-α-cyanobenzyl 2,2-dimethyl-3-(1,2,2,2-tetrabromoethyl)cyclopropanecarboxylate], in data set [2], the selectivity ratio was over 83 and the LC50 at 48 h was over 1 µg/mL. Further, the LC50 in data set [3] is reported as 5.8 ppm. Further, in data set [6], the mortality at 500 ppm is 100%.
Consider `CC1(C)[C@H](C(=O)OC(C#N)c2ccc(F)c(Oc3ccc(Br)cc3)c2)[C@@H]1C(Br)C(Cl)(Cl)Br` (relative stereo) [compound (2), 3-(4-Bromophenoxy)-4-fluoro-α-cyanobenzyl dl-cis-2,2-dimethyl-3-(1,2-dibromo-2,2-dichloroethyl)cyclopropanecarboxylate], for which, in data set [2], the selectivity ratio is over 167 and the LC50 at 48 h is over 2 µg/mL. For the same compound, the LC50 in data set [3] is on record as 6.0 ppm.
`CC1(C)C(C(=O)OC(C#N)c2cccc(Oc3ccc(Cl)cc3)c2)C1C(Br)C(Cl)(Cl)Br` (stereo not drawn) [(C), reference compound]: the LD50 in data set [1] was found to be 0.062 μg/adult.
For the compound `CC1(C)C(C=C(Cl)Cl)C1C(=O)OC(C#N)c1ccc(F)c(Oc2ccccc2)c1` (stereo not drawn) [(B), reference compound], in data set [2], the selectivity ratio is under 2 and the LC50 at 48 h was under 0.01 µg/mL. This compound also showed an LC50 in data set [3] of 2.5 ppm.
On to `CC1(C)[C@H](C(=O)OC(C#N)c2ccc(F)c(Oc3ccc(Cl)cc3)c2)[C@@H]1C(Br)C(Cl)(Cl)Br` (relative stereo) [compound (7), 3-(4-Chlorophenoxy)-4-fluoro-α-cyanobenzyl dl-cis-2,2-dimethyl-3-(1,2-dibromo-2,2-dichloroethyl)cyclopropanecarboxylate], for which, in data set [6], the mortality at 500 ppm is 100%.

Values taken from patent US4376785A, “Cyclopropanecarboxylates and a low fish toxic insecticide and/or acaricide containing them” (priority 1980, dated 1983).
